Data: patent US20230241071A1, “COMBINATION TREATMENT OF LIVER DISORDERS” (Terns Pharmaceuticals, Inc., priority 2021, published 2023)
“Also recorded” adds a separate entry of the source.

Tests used:
SSAO = target: T1, SSAO (Homo sapiens, UniProt Q16853); test: Plasma SSAO/amine oxidase activity and methylamine after a single dose of Compound 1; assay type: in vivo
T1 construct: from tissue; host or cells: human plasma from dosed participants
T1 sequence (Q16853 29-763 limits assumed): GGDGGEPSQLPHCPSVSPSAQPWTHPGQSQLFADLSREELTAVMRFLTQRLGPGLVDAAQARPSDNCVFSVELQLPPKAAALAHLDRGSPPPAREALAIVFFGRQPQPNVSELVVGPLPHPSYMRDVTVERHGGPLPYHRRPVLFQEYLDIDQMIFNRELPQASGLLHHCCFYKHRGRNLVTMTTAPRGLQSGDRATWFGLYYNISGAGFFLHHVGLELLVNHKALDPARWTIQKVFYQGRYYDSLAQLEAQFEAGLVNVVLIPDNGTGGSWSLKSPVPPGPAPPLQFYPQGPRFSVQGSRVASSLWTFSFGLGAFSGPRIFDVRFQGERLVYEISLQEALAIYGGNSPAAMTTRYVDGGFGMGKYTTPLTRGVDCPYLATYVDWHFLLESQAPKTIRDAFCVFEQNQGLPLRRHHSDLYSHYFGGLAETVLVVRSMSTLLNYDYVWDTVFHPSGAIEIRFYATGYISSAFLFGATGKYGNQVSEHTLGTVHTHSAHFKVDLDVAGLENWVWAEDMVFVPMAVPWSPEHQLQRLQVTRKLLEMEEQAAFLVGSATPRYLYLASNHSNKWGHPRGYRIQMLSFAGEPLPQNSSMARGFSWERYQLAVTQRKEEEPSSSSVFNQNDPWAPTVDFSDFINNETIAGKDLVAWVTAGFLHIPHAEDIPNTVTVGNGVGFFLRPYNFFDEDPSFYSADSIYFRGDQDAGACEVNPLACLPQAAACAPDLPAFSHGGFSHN
Procedure: Safety was assessed for 7 (±3) days after dosing.
Plasma PK parameters were determined by non-compartmental analysis.
SSAO-specific amine oxidase levels in plasma were determined using a kinetic-based assay essentially as described previously (Schilter et al). Endogenous monoamine oxidases A and B were inhibited by adding pargyline to plasma samples prior to measuring H2O2 generation levels in placebo and active recipients.

Approximate pKa = assay type: physicochemical
[1] = Capsule pharmacokinetics in beagle dogs; assay type: in vivo, dog
Procedure: To determine the effect of the solubilizer on the uptake of compound 2, 50 mg (based on free acid) Compound 2 was formulated in a capsule with or without 5 wt % SLS (see Table 10) and was administered to fasted beagle dogs pre-treated with pentagastrin (6 μg/kg, administered by intramuscular injection 30±2 minutes prior to administration of compound 2). The plasma concentration of compound 2 was measured over 24 hours (see FIG. 9).
To determine the pH effect on PK performance, beagle dogs were divided into two groups (n=3 per group). For group 1, dogs were pre-treated with pentagastrin (6 μg/kg, intramuscular injection 30±2 minutes prior to administration of compound 2). For group 2, dogs were pre-treated with famotidine (2 tablets, 20 mg/tablet, oral administration 180±10 minutes prior to administration of compound 2). Compound 2 (10 mg capsule, 5% SLS) was administered, and plasma concentrations of compound 2 were monitored for 24 h and are depicted in FIG. 10. […] To determine the food effect on PK performance, beagle dogs were divided into two groups (n=3 per group). For the fasted group, dogs were fasted overnight through 4-hours post dosing. For the fed group, dogs were fed high fat food 30 minutes prior to administration. Plasma concentrations of compound 2 were monitored for 24 h. Compound 2 (10 mg capsule, 5% SLS) was administered, and plasma concentrations of compound 2 were monitored for 24 h and are depicted in FIG. 11.

OATP1B1 = target: T2, OATP1B1 (Homo sapiens, UniProt Q9Y6L6); test: In vitro transporter inhibition, OATP1B1; assay type: in vitro ADME
T2 sequence (Q9Y6L6 1-691): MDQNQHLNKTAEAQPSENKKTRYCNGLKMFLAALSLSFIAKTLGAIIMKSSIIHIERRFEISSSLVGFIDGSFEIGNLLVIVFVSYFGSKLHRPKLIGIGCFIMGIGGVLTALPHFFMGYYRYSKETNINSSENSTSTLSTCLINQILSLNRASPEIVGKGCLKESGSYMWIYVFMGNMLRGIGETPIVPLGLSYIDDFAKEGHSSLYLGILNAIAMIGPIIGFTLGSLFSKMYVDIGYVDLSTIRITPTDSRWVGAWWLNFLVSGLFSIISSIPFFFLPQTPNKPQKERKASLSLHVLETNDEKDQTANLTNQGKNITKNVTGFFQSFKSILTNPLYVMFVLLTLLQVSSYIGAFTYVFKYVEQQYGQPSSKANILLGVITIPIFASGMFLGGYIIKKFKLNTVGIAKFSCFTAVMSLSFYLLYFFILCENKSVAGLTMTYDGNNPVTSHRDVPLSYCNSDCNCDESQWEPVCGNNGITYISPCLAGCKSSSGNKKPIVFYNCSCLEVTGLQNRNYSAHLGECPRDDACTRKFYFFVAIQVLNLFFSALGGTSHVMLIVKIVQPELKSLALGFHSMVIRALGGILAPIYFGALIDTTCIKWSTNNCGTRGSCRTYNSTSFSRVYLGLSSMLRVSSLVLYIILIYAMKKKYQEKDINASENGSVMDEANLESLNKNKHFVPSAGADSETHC

SMILES | inhibition of plasma SSAO activity (SSAO; 4 hours post-dose, all dose cohorts (1-10 mg)) | duration of suppression of plasma SSAO activity after a single dose (SSAO; single dose 1-10 mg) | plasma methylamine (MMA) (SSAO; single dose 1-10 mg) | pKa (Approximate pKa) | food effect on PK performance ([1]; 10 mg capsule, 5% SLS, fasted vs high fat food) | pH effect on PK performance ([1]; 10 mg capsule, 5% SLS, pentagastrin vs famotidine pre-treatment) | increase of exposure (Cmax, AUC) by formulation with 5 wt % SLS ([1]; 50 mg capsule with vs without 5 wt % SLS, fasted beagle dogs) | IC50 (OATP1B1)
COC1CCN(c2ncc(OC/C(=C/F)CN)cn2)CC1 [Compound 1, (E)-3-fluoro-2-(((2-(4-methoxypiperidin-1-yl)pyrimidin-5-yl)oxy)methyl)prop-2-en-1-amine] | Near complete inhibition | up to 1 week | Maximum plasma MMA levels increased; also recorded: Dose-dependent increases |  |  |  |  | 
N#Cc1nn(-c2cc(Cl)c(Oc3n[nH]c(=O)c4ccccc34)c(Cl)c2)c(=O)[nH]c1=O [Compound 2, 2-(3,5-dichloro-4-((4-oxo-3,4-dihydrophthalazin-1-yl)oxy)phenyl)-3,5-dioxo-2,3,4,5-tetrahydro-1,2,4-triazine-6-carbonitrile] |  |  |  | ~4.12 | delayed Compound 2 Tmax but did not have an impact on the plasma exposure | Minimal pH effect | more than 70% | 2.01 µM
